The assay addresses recombinant Human Phosphodiesterase B2 (PDE4B2) (Homo sapiens, UniProt Q07343). As to the kind of experiment: Human Phosphodiesterase B2 Radiometric Assay. The class given is biochemical. Conditions: 0.1 μg/mL recombinant PDE4B2; preincubated at 30 C for 30 min; [3H]cyclic AMP 8 nM, stopped after 20 min; yttrium silicate SPA beads; read-out: PDE4B2 pIC50 (converted). Put shortly: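 SPA read-out: product 5′AMP binds yttrium silicate beads (added with 18 mM ZnSO4 after 20 min) in preference to [3H]cAMP substrate, given at 8 nM final.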

Chain of recombinant Human Phosphodiesterase B2 (PDE4B2) (Q07343 1-564 isoform Q07343-2): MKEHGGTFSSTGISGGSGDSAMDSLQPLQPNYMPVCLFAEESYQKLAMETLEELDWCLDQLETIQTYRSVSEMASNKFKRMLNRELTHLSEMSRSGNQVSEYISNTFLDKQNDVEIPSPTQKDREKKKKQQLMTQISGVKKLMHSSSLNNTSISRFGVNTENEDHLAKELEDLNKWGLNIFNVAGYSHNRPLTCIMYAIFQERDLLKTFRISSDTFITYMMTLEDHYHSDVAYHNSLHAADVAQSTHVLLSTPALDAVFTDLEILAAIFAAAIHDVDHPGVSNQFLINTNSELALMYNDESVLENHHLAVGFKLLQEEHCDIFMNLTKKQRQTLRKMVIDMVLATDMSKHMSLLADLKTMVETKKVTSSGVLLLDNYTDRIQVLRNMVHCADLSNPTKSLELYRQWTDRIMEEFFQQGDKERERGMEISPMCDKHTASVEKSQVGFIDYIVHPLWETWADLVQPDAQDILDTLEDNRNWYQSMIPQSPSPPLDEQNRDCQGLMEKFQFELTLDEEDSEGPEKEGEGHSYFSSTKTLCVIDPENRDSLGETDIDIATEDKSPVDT

`Cc1csc(C(=O)N[C@H]2CC[C@@H](NC(=O)c3cc(F)cnc3Oc3cccc(-c4ccc(CN5C[C@@H](C)N[C@@H](C)C5)cc4CN4CCOC[C@@H]4C)c3)CC2)n1` [Example 194, N-((1s,4s)-4-(2-(4′-(((3S,5R)-3,5-dimethylpiperazin-1-yl)methyl)-2′-(((S)-3-methylmorpholino)methyl)biphenyl-3-yloxy)-5-fluoronicotinamido)cyclohexyl)-4-methylthiazole-2-carboxamide]: the IC50 was 0.0316 nM.
Under `Cc1ccc(O)c(C(=O)N[C@H]2CC[C@@H](NC(=O)c3cc(F)cnc3Oc3cccc(-c4ccc(O)cc4CN4CCCOCC4)c3)CC2)c1` [Example 16, 2-(2′-((1,4-oxazepan-4-yl)methyl)-4′-hydroxybiphenyl-3-yloxy)-5-fluoro-N-((1s,4s)-4-(2-hydroxy-5-methylbenzamido)cyclohexyl)nicotinamide] stands 0.0316 nM; under `Cc1cc(C)n2ncc(C(=O)N[C@H]3CC[C@@H](NC(=O)c4cc(F)cnc4Oc4cccc(-c5ccc(CN6C[C@@H](C)N[C@@H](C)C6)cc5CN5CCOC[C@@H]5C)c4)CC3)c2n1` [Example 196, N-((1s,4s)-4-(2-(4′-(((3S,5R)-3,5-dimethylpiperazin-1-yl)methyl)-2′-(((S)-3-methylmorpholino)methyl)biphenyl-3-yloxy)-5-fluoronicotinamido)cyclohexyl)-5,7-dimethylpyrazolo[1,5-a]pyrimidine-3-carboxamide], 0.0251 nM.
Under `Cc1nc(C(=O)N[C@H]2CC[C@@H](NC(=O)c3cc(F)cnc3Oc3cccc(-c4ccc(CN5CCCOCC5)cc4)c3)CC2)cs1` [Example 55, N-((1s,4s)-4-(2-(4′-((1,4-oxazepan-4-yl)methyl)biphenyl-3-yloxy)-5-fluoronicotinamido)cyclohexyl)-2-methylthiazole-4-carboxamide] stands 0.1 nM; under `C[C@@H]1CN(Cc2ccc(-c3cccc(Oc4ncc(F)cc4C(=O)N[C@H]4CC[C@@H](NC(=O)c5cc6n(n5)CCCC6)CC4)c3)c(CN3CCSCC3)c2)C[C@H](C)N1` [Example 188, N-((1s,4s)-4-(2-(4′-(((3S,5R)-3,5-dimethylpiperazin-1-yl)methyl)-2′-(thiomorpholinomethyl)biphenyl-3-yloxy)-5-fluoronicotinamido)cyclohexyl)-4,5,6,7-tetrahydropyrazolo[1,5-a]pyridine-2-carboxamide], 0.02 nM.
The same measure for `C[C@@H]1CN(CCCc2ccc(-c3cccc(Oc4ncc(F)cc4C(=O)N[C@H]4CC[C@@H](NC(=O)c5cc6ncccn6n5)CC4)c3)cc2)C[C@H](C)N1` [Example 143, N-((1s,4s)-4-(2-(4′-(3-((3S,5R)-3,5-dimethylpiperazin-1-yl)propyl)biphenyl-3-yloxy)-5-fluoronicotinamido)cyclohexyl)pyrazolo[1,5-a]pyrimidine-2-carboxamide]: 0.0794 nM.
In the case of `Cc1cccc2nc(C(=O)N[C@H]3CC[C@@H](NC(=O)c4cc(F)cnc4Oc4cccc(-c5cccc(CN6CCNCC6)c5)c4)CC3)cn12` [Example 100, N-((1s,4s)-4-(5-fluoro-2-(3′-(piperazin-1-ylmethyl)biphenyl-3-yloxy)nicotinamido)cyclohexyl)-5-methylimidazo[1,2-a]pyridine-2-carboxamide], the IC50 is 0.158 nM.
Under `O=C(NC1CCC(NC(=O)c2cc(F)cnc2Oc2cccc(-c3ccc(CCCN4CCNCC4)cc3)c2)CC1)c1nc(CO)cs1` (stereo not shown) [Example 187, N-((1s,4s)-4-(5-Fluoro-2-(4′-(3-(piperazin-1-yl)propyl)biphenyl-3-yloxy)nicotinamido)cyclohexyl)-4-(hydroxymethyl)thiazole-2-carboxamide] stands 0.2 nM.
The same measure for `Cc1nc(C(=O)N[C@H]2CC[C@@H](NC(=O)c3cc(F)cnc3Oc3cccc(-c4ccc(CN5C[C@@H](C)N[C@@H](C)C5)cc4CN4CCSCC4)c3)CC2)cs1` [Example 189, N-((1s,4s)-4-(2-(4′-(((3S,5R)-3,5-dimethylpiperazin-1-yl)methyl)-2′-(thiomorpholinomethyl)biphenyl-3-yloxy)-5-fluoronicotinamido)cyclohexyl)-2-methylthiazole-4-carboxamide]: 0.0158 nM; for `Cc1cc(C(=O)N[C@H]2CC[C@@H](NC(=O)c3cc(F)cnc3Oc3cccc(-c4cccc(CCN5C[C@@H](C)N[C@@H](C)C5)c4)c3)CC2)nn1C` [Example 103, N-((1s,4s)-4-(1,5-dimethyl-1H-pyrazole-3-carboxamido)cyclohexyl)-2-(3′-(2-((3S,5R)-3,5-dimethylpiperazin-1-yl)ethyl)biphenyl-3-yloxy)-5-fluoronicotinamide]: 0.0316 nM; for `Cc1cc(C(=O)N[C@H]2CC[C@@H](NC(=O)c3cc(F)cnc3Oc3cccc(-c4ccc(CCCNCCCO)cc4)c3)CC2)nn1C` [Example 152, N-((1s,4s)-4-(1,5-dimethyl-1H-pyrazole-3-carboxamido)cyclohexyl)-5-fluoro-2-(4′-(3-(3-hydroxypropylamino)propyl)biphenyl-3-yloxy)nicotinamide]: 0.0398 nM.
The same measure for `Cc1nc(C(=O)N[C@H]2CC[C@@H](NC(=O)c3cc(F)cnc3Oc3cccc(-c4ccc(CCCN5CCCNCC5)cc4)c3)CC2)cs1` [Example 135, N-((1s,4s)-4-(2-(4′-(3-(1,4-diazepan-1-yl)propyl)biphenyl-3-yloxy)-5-fluoronicotinamido)cyclohexyl)-2-methylthiazole-4-carboxamide]: 0.0501 nM; for `Cc1cccc2nc(C(=O)N[C@H]3CC[C@@H](NC(=O)c4cc(F)cnc4Oc4cccc(-c5ccc(CN6CCCN(C)CC6)cc5CN5CCOCC5)c4)CC3)cn12` [Example 185, N-((1s,4s)-4-(5-Fluoro-2-(4′-((4-methyl-1,4-diazepan-1-yl)methyl)-2′-(morpholinomethyl)biphenyl-3-yloxy)nicotinamido)cyclohexyl)-5-methylimidazo[1,2-a]pyridine-2-carboxamide]: 0.02 nM.
As to `C[C@@H]1CN(Cc2ccc(-c3cccc(Oc4ncc(F)cc4C(=O)N[C@H]4CC[C@@H](NC(=O)c5cn6cc(F)ccc6n5)CC4)c3)cc2)C[C@H](C)N1` [Example 67, N-((1s,4s)-4-(2-(4′-(((3S,5R)-3,5-dimethylpiperazin-1-yl)methyl)biphenyl-3-yloxy)-5-fluoronicotinamido)cyclohexyl)-6-fluoroimidazo[1,2-a]pyridine-2-carboxamide], the IC50 was 0.1 nM.
Under `C[C@H]1COCCN1Cc1cc(CN2CCCN(CCO)CC2)ccc1-c1cccc(Oc2ncc(F)cc2C(=O)N[C@H]2CC[C@@H](NC(=O)c3cccc4[nH]cnc34)CC2)c1` [Example 180, N-((1s,4s)-4-(5-Fluoro-2-(4′-((4-(2-hydroxyethyl)-1,4-diazepan-1-yl)methyl)-2′-(((S)-3-methylmorpholino)methyl)biphenyl-3-yloxy)nicotinamido)cyclohexyl)-1H-benzo[d]imidazole-4-carboxamide] stands 0.0158 nM; under `Cc1cc(C(=O)N[C@H]2CC[C@@H](NC(=O)c3cc(F)cnc3Oc3cccc(-c4cccc(CCN5CCNCC5)c4)c3)CC2)nn1C` [Example 102, N-((1s,4s)-4-(1,5-dimethyl-1H-pyrazole-3-carboxamido)cyclohexyl)-5-fluoro-2-(3′-(2-(piperazin-1-yl)ethyl)biphenyl-3-yloxy)nicotinamide], 0.0398 nM.

The values are drawn from US8273774B2, “Phenoxypyridinylamide compounds” (AstraZeneca AB, priority 2008, dated 2012).
